Assay results: ChEMBL document CHEMBL3044811, “Efficacy of grain protectants against four psocid species on maize, rice and wheat” (2009)
Activity calls are given as the source filed them. The calls are words filed in the database; no cut-off is given here.

Columns and labels:
Liposcelis paeta [1] = assay: Insecticidal activity against Liposcelis paeta in compound pret-reated wheat grains assessed as mortality at 1.6 ppm after 7 days (reference value: 7.8 +/-3.2%); format: functional; conditions: 168 h
Lepinotus reticulatus [2] = assay: Insecticidal activity against Lepinotus reticulatus in compound pre-treated maize grains assessed as mortality at 1.6 ppm after 7 days (reference value: 34.4 +/-11.4%); format: functional
Lepinotus reticulatus [3] = assay: Insecticidal activity against Lepinotus reticulatus in compound pre-treated maize grains assessed as mortality at 1.6 ppm after 14 days (reference value: 61.1 +/-11.9%); format: functional
Liposcelis paeta [4] = assay: Insecticidal activity against Liposcelis paeta in compound pre-treated rice grains assessed as mortality at 2.2 ppm after 7 days (reference value: 3.3 +/-1.7%); format: functional
Liposcelis entomophila [5] = assay: Insecticidal activity against Liposcelis entomophila in compound pre-treated rice grains assessed as effect on progeny production at 2.2 ppm after 30 days; format: functional, organism-based
Liposcelis entomophila [6] = assay: Insecticidal activity against Liposcelis entomophila in compound pre-treated maize grains assessed as mortality at 1.6 ppm after 14 days (reference value: 14.4 +/-4.1%); format: functional
Liposcelis paeta [7] = assay: Insecticidal activity against Liposcelis paeta in compound pre-treated rice grains assessed as mortality at 2.2 ppm after 14 days (reference value: 3.4 +/-1.6%); format: functional
Lepinotus reticulatus [8] = assay: Insecticidal activity against Lepinotus reticulatus in compound pre-treated wheat grains assessed as mortality at 1.6 ppm after 7 days (reference value: 10.0 +/-5.3%); format: functional
[9] = tested on: Liposcelis bostrychophila; assay: Insecticidal activity against Liposcelis bostrychophila (booklice) in compound pre-treated maize grains assessed as decrease in progeny production at 1.6 ppm after 30 days; format: functional, organism-based
Liposcelis entomophila [10] = assay: Insecticidal activity against Liposcelis entomophila in compound pre-treated wheat grains assessed as mortality at 1.6 ppm after 7 days (reference value: 5.6 +/-2.9%); format: functional
Liposcelis paeta [11] = assay: Insecticidal activity against Liposcelis paeta in compound pre-treated maize grains assessed as mortality at 1.6 ppm after 14 days (reference value: 14.1 +/-4.1%); format: functional
[12] = tested on: Liposcelis bostrychophila; assay: Insecticidal activity against Liposcelis bostrychophila (booklice) in compound pre-treated rice grains assessed as effect on progeny production at 2.2 ppm after 30 days; format: functional, organism-based
[13] = tested on: Liposcelis bostrychophila; assay: Insecticidal activity against Liposcelis bostrychophila (booklice) in compound pre-treated rice grains assessed as mortality at 2.2 ppm after 14 days (reference value: 9.7 +/-2.4%); format: functional
[14] = tested on: Liposcelis bostrychophila; assay: Insecticidal activity against Liposcelis bostrychophila (booklice) in compound pre-treated wheat grains assessed as mortality at 1.6 ppm after 14 days (reference value: 6.8 +/-3.3%); format: functional
Liposcelis paeta [15] = assay: Insecticidal activity against Liposcelis paeta in compound pret-reated maize grains assessed as mortality at 1.6 ppm after 7 days (reference value: 13.3 +/-3.3%); format: functional; conditions: 168 h
Liposcelis paeta [16] = assay: Insecticidal activity against Liposcelis paeta in compound pre-treated wheat grains assessed as mortality at 1.6 ppm after 14 days (reference value: 5.6 +/-1.8%); format: functional
Lepinotus reticulatus [17] = assay: Insecticidal activity against Lepinotus reticulatus in compound pre-treated rice grains assessed as effect on progeny production at 2.2 ppm after 30 days; format: functional, organism-based
Lepinotus reticulatus [18] = assay: Insecticidal activity against Lepinotus reticulatus in compound pre-treated rice grains assessed as mortality at 2.2 ppm after 14 days (reference value: 15.5 +/-4.1%); format: functional
Lepinotus reticulatus [19] = assay: Insecticidal activity against Lepinotus reticulatus in compound pre-treated rice grains assessed as mortality at 2.2 ppm after 7 days (reference value: 6.8 +/-2.4%); format: functional
Liposcelis entomophila [20] = assay: Insecticidal activity against Liposcelis entomophila in compound pre-treated rice grains assessed as mortality at 2.2 ppm after 7 days (reference value: 3.3 +/-2.6%); format: functional
Liposcelis entomophila [21] = assay: Insecticidal activity against Liposcelis entomophila in compound pre-treated maize grains assessed as decrease in progeny production at 1.6 ppm after 30 days; format: functional, organism-based
[22] = tested on: Liposcelis bostrychophila; assay: Insecticidal activity against Liposcelis bostrychophila (booklice) in compound pre-treated maize grains assessed as mortality at 1.6 ppm after 14 days (reference value: 13.5 +/-5.3%); format: functional
[23] = tested on: Liposcelis bostrychophila; assay: Insecticidal activity against Liposcelis bostrychophila (booklice) in compound pre-treated wheat grains assessed as effect on progeny production at 1.6 ppm after 30 days; format: functional, organism-based
[24] = tested on: Liposcelis bostrychophila; assay: Insecticidal activity against Liposcelis bostrychophila (booklice) in compound pre-treated maize grains assessed as mortality at 1.6 ppm after 7 days (reference value: 8.9 +/-2.6%); format: functional
Liposcelis entomophila [25] = assay: Insecticidal activity against Liposcelis entomophila in compound pre-treated wheat grains assessed as mortality at 1.6 ppm after 14 days (reference value: 13.3 +/-4.7%); format: functional
[26] = tested on: Liposcelis bostrychophila; assay: Insecticidal activity against Liposcelis bostrychophila (booklice) in compound pre-treated rice grains assessed as mortality at 2.2 ppm after 7 days (reference value: 8.9 +/-4.5%); format: functional
[27] = tested on: Liposcelis bostrychophila; assay: Insecticidal activity against Liposcelis bostrychophila (booklice) in compound pre-treated wheat grains assessed as mortality at 1.6 ppm after 7 days (reference value: 3.3 +/-1.7%); format: functional
Liposcelis entomophila [28] = assay: Insecticidal activity against Liposcelis entomophila in compound pre-treated rice grains assessed as mortality at 2.2 ppm after 14 days (reference value: 10.0 +/-4.7%); format: functional
Lepinotus reticulatus [29] = assay: Insecticidal activity against Lepinotus reticulatus in compound pre-treated wheat grains assessed as mortality at 1.6 ppm after 14 days (reference value: 21.1 +/-7.4%); format: functional
Liposcelis entomophila [30] = assay: Insecticidal activity against Liposcelis entomophila in compound pre-treated wheat grains assessed as decrease in progeny production at 1.6 ppm after 30 days; format: functional, organism-based
Lepinotus reticulatus [31] = assay: Insecticidal activity against Lepinotus reticulatus in compound pre-treated maize grains assessed as decrease in progeny production at 1.6 ppm after 30 days; format: functional, organism-based
Lepinotus reticulatus [32] = assay: Insecticidal activity against Lepinotus reticulatus in compound pre-treated wheat grains assessed as decrease in progeny production at 1.6 ppm after 30 days; format: functional, organism-based
Liposcelis entomophila [33] = assay: Insecticidal activity against Liposcelis entomophila in compound pre-treated maize grains assessed as mortality at 1.6 ppm after 7 days (reference value: 15.6 +/-6.9%); format: functional

C=C/C=C\CC1=C(C)[C@@H](OC(=O)[C@@H]2[C@@H](/C=C(\C)C(=O)OC)C2(C)C)CC1=O [PYRETHRIN] gave a mortality at 1.6 ppm (Liposcelis paeta [1]) of 14.5%, a mortality at 1.6 ppm (Lepinotus reticulatus [2]) of 57.8% and a mortality at 1.6 ppm (Lepinotus reticulatus [3]) of 86.7%. For the same compound, the mortality at 2.2 ppm (Liposcelis paeta [4]) was 15.7%, the inhibition (Liposcelis entomophila [5]) was “inactive” and the mortality at 1.6 ppm (Liposcelis entomophila [6]) was 60%. The mortality at 2.2 ppm (Liposcelis paeta [7]) was 31.1%, the mortality at 1.6 ppm (Lepinotus reticulatus [8]) was 41.1% and the inhibition [9] was “Active”. The mortality at 1.6 ppm (Liposcelis entomophila [10]) was 47.8%, the mortality at 1.6 ppm (Liposcelis paeta [11]) was 18.9% and the inhibition [12] was “inactive”. For the same compound, the mortality at 2.2 ppm [13] was 26.5%, the mortality at 1.6 ppm [14] was 30% and the mortality at 1.6 ppm (Liposcelis paeta [15]) was 10%. For the same compound, the mortality at 1.6 ppm (Liposcelis paeta [16]) was 14.4%, the inhibition (Lepinotus reticulatus [17]) was “inactive” and the mortality at 2.2 ppm (Lepinotus reticulatus [18]) was 14.3%. For the same compound, the mortality at 2.2 ppm (Lepinotus reticulatus [19]) was 23.4%, the mortality at 2.2 ppm (Liposcelis entomophila [20]) was 8.9% and the inhibition (Liposcelis entomophila [21]) was “Active”. For the same compound, the mortality at 1.6 ppm [22] was 23.3%, the inhibition [23] was “inactive” and the mortality at 1.6 ppm [24] was 18.9%. It also gave a mortality at 1.6 ppm (Liposcelis entomophila [25]) of 55.6%, a mortality at 2.2 ppm [26] of 23.3% and a mortality at 1.6 ppm [27] of 17.8%. For the same compound, the mortality at 2.2 ppm (Liposcelis entomophila [28]) was 16.7%, the mortality at 1.6 ppm (Lepinotus reticulatus [29]) was 65.7% and the inhibition (Liposcelis entomophila [30]) was “Active”. The inhibition (Lepinotus reticulatus [31]) was “Active”, the inhibition (Lepinotus reticulatus [32]) was “Active” and the mortality at 1.6 ppm (Liposcelis entomophila [33]) was 17.8%.
